Measurements: ChEMBL document CHEMBL4837181 (Eur J Med Chem, 2020)
Where a SMILES comes first, the peptide text is derived from it. [ ]: non-standard residue; d: D form. dTrp(1-Me) = Cn1cc(C[C@@H](N)C(=O)O)c2ccccc21

What was measured:
[1] = Chemical stability of compound in simulated gastric fluid assessed as compound remaining at 5 uM measured after 1.5 hrs by LC-MS/MS analysis; type: ADME, physicochemical; conditions: read-out: Stabilty
[2] = Stability in human plasma assessed as parent compound remaining measured after 24 hrs by LC-MS/MS analysis; type: ADME, cell-free; conditions: read-out: Stabilty
[3] = Chemical stability of compound in saline assessed as compound remaining at 5 uM measured after 24 hrs by LC-MS/MS analysis; type: physicochemical; conditions: read-out: Stabilty
[4] = Chemical stability of compound in 0.1 N aqueous HCl buffer assessed as compound remaining at pH 1 at 5 uM measured after 1.5 hrs by LC-MS/MS analysis; type: physicochemical; conditions: pH 1, 1.5 h
[5] = Dose normalized Cmax in rat at 10 mg/kg, po measured upto 72 hrs by LC-MS/MS analysis; type: ADME, organism-based; conditions: in vivo
[6] = Stability in human plasma assessed as parent compound remaining measured after 6 hrs by LC-MS/MS analysis; type: ADME, cell-free; conditions: read-out: Stabilty
[7] = Chemical stability of compound in simulated gastric fluid assessed as compound remaining at 5 uM measured after 24 hrs by LC-MS/MS analysis; type: ADME, physicochemical; conditions: read-out: Stabilty
[8] = Chemical stability of compound in PBS buffer assessed as compound remaining at pH 7.4 at 5 uM measured after 24 hrs by LC-MS/MS analysis; type: physicochemical; conditions: read-out: Stabilty
[9] = Chemical stability of compound in 0.1 N aqueous HCl buffer assessed as compound remaining at pH 1 at 5 uM measured after 24 hrs by LC-MS/MS analysis; type: physicochemical; conditions: pH 1, 24 h
[10] = Change in normalised Cmax in rat at 10 mg/kg, po measured upto 72 hrs by LC-MS/MS analysis; type: ADME, organism-based; conditions: in vivo
[11] = Change in normalised AUCinfinity in rat at 10 mg/kg, po measured upto 72 hrs by LC-MS/MS analysis; type: ADME, organism-based; conditions: in vivo
[12] = Chemical stability of compound in simulated intestinal fluid assessed as compound remaining at 5 uM measured after 3 hrs by LC-MS/MS analysis; type: ADME, physicochemical; conditions: read-out: Stabilty
[13] = Chemical stability of compound in simulated intestinal fluid assessed as compound remaining at 5 uM measured after 24 hrs by LC-MS/MS analysis; type: ADME, physicochemical; conditions: read-out: Stabilty
[14] = Stability in mouse plasma assessed as parent compound remaining measured after 2 hrs by LC-MS/MS analysis; type: ADME, cell-free; conditions: read-out: Stabilty
[15] = Stability in rat plasma assessed as parent compound remaining measured after 2 hrs by LC-MS/MS analysis; type: ADME, cell-free; conditions: read-out: Stabilty
[16] = Chemical stability of compound in PBS buffer assessed as compound remaining at pH 7.4 at 5 uM measured after 6 hrs by LC-MS/MS analysis; type: physicochemical; conditions: read-out: Stabilty
[17] = Dose normalized AUC (0 to infinity) in rat at 10 mg/kg, po measured upto 72 hrs by LC-MS/MS analysis; type: ADME, organism-based; conditions: in vivo
[18] = Change in Cmax in rat at 37 umol/kg, po measured upto 72 hrs by LC-MS/MS analysis; type: ADME, organism-based; conditions: in vivo, at 37 µmol/kg
[19] = Change in AUC (infinity) in rat at 37 umol/kg, po measured upto 72 hrs by LC-MS/MS analysis; type: ADME, organism-based; conditions: in vivo, at 37 µmol/kg

remaining at 1.5 h, 5 µM [1] | remaining at 24 h [2] | remaining at 24 h, 5 µM [3] | Stabilty [4] | Cmax/dose [5] | remaining at 6 h [6] | remaining at 24 h, 5 µM [7] | remaining at 24 h, 5 µM [8] | Stabilty [9] | Activity [10] | Activity [11] | remaining at 3 h, 5 µM [12] | remaining at 24 h, 5 µM [13] | remaining at 2 h [14] | remaining at 2 h [15] | remaining at 6 h, 5 µM [16] | AUC/dose [17] | Activity [18] | Activity [19] | Structure (SMILES)
20% | 0% | 40% | 100% | 13.4 µM | 65% | 25% | 34% | 40% | -22% | -39% | 36% | 12% | 94% | 92% | 58% | 310 µM·h | – | – | C[C@H](N)C(=O)N[C@H](Cc1cn(C)c2ccccc12)C(=O)O.Cl
– | – | – | – | – | – | – | – | – | – | – | – | – | – | – | – | – | -27% | -27% | CS(=O)(=O)O.Cn1cc(C[C@@H](N)C(=O)OCC(O)CO)c2ccccc21 (stereo partly drawn)
2% | 2% | 47% | 3% | 39.5 µM | 10% | 2% | 0% | 47% | 128% | 44% | 0% | 0% | 0% | 0% | 0% | 731 µM·h | – | – | CN(C)CCOC(=O)[C@H](N)Cc1cn(C)c2ccccc12.Cl
85% | 54% | 76% | 52% | 15 µM | 85% | 60% | 0% | 76% | -14% | 52% | 67% | 0% | 0% | 0% | 85% | 774 µM·h | – | – | Cl.Cn1cc(C[C@@H](N)C(=O)OCCC2CCOCC2)c2ccccc21
– | – | – | – | – | – | – | – | – | – | – | – | – | – | – | – | – | 2% | 21% | Cn1cc(C[C@@H](N)C(=O)OCC(O)CO)c2ccccc21.O=S(=O)(O)O (stereo partly drawn)
– | – | – | – | – | – | – | – | – | – | – | – | – | – | – | – | – | 20% | -20% | CCOC(=O)[C@@H](Cc1cn(C)c2ccccc12)NC(=O)[C@@H](N)CCC(N)=O.O=S(=O)(O)O
54% | 39% | 98% | 51% | 1.6 µM | 68% | 49% | 37% | 98% | -91% | -60% | 62% | 64% | 89% | 100% | 99% | 202 µM·h | – | – | CC(C)C(NC(=O)[C@H](N)Cc1cn(C)c2ccccc12)C(=O)O.Cl (single isomer, unassigned)
81% | 86% | 98% | 92% | 12.5 µM | 84% | 77% | 100% | 98% | -28% | -38% | 94% | 0% | 80% | 54% | 100% | 316 µM·h | – | – | CC[C@H](C)[C@H](N)C(=O)N[C@H](Cc1cn(C)c2ccccc12)C(=O)O.Cl
– | – | – | – | – | – | – | – | – | – | – | – | – | – | – | – | – | -79% | -64% | Cn1cc(C[C@@H](N)C(=O)OCC2CCNCC2)c2ccccc21.O=P(O)(O)O
– | – | – | – | – | – | – | – | – | – | – | – | – | – | – | – | – | 5% | -16% | CCOC(=O)[C@@H](Cc1cn(C)c2ccccc12)NC(=O)[C@@H](N)CCC(N)=O
– | – | – | – | – | – | – | – | – | – | – | – | – | – | – | – | – | 4% | -12% | CCOC(=O)[C@@H](Cc1cn(C)c2ccccc12)NC(=O)[C@@H](N)CCC(N)=O.CS(=O)(=O)O
– | – | – | – | – | – | – | – | – | – | – | – | – | – | – | – | – | -4% | 10% | Cn1cc(C[C@@H](NC(=O)[C@@H](N)CCCCN)C(=O)O)c2ccccc21.O=S(=O)(O)O

Further lines, the molecule ahead of its results:

Structure (SMILES) | remaining at 1.5 h, 5 µM [1] | remaining at 24 h [2] | remaining at 24 h, 5 µM [3] | Stabilty [4] | Cmax/dose [5] | remaining at 6 h [6] | remaining at 24 h, 5 µM [7] | remaining at 24 h, 5 µM [8] | Stabilty [9] | Activity [10] | Activity [11] | remaining at 3 h, 5 µM [12] | remaining at 24 h, 5 µM [13] | remaining at 2 h [14] | remaining at 2 h [15] | remaining at 6 h, 5 µM [16] | AUC/dose [17] | Activity [18] | Activity [19]
Cl.Cn1cc(C[C@@H](NC(=O)[C@@H](N)Cc2c[nH]c3ccccc23)C(=O)O)c2ccccc21 | 81% | 94% | 61% | 52% | 12 µM | 97% | 73% | 33% | 61% | -31% | -18% | 88% | 69% | 90% | 76% | 55% | 415 µM·h | – | –
CCOC(=O)[C@@H](Cc1cn(C)c2ccccc12)NC(=O)[C@@H](N)CC(C)C.O=S(=O)(O)O | – | – | – | – | – | – | – | – | – | – | – | – | – | – | – | – | – | -23% | -5%
CC(C)[C@H](N)C(=O)N[C@H](Cc1cn(C)c2ccccc12)C(=O)O.Cl | 55% | 47% | 99% | 98% | 14.2 µM | 79% | 50% | 44% | 99% | -18% | -33% | 78% | 76% | 57% | 9% | 91% | 338 µM·h | – | –
Cn1cc(C[C@@H](NC(=O)[C@@H](N)CCCCN)C(=O)O)c2ccccc21 | – | – | – | – | – | – | – | – | – | – | – | – | – | – | – | – | – | -17% | -13%
CCOC(=O)[C@@H](Cc1cn(C)c2ccccc12)NC(=O)[C@@H](N)[C@@H](C)CC.Cl | 98% | 16% | 97% | 95% | 12.8 µM | 75% | 97% | 63% | 97% | -26% | 19% | 91% | 38% | 0% | 0% | 97% | 606 µM·h | – | –
CCOC(=O)[C@@H](Cc1cn(C)c2ccccc12)NC(=O)[C@@H](N)CC(C)C.CS(=O)(=O)O | – | – | – | – | – | – | – | – | – | – | – | – | – | – | – | – | – | 111% | 127%
Cn1cc(C[C@@H](NC(=O)[C@@H](N)CCCCN)C(=O)O)c2ccccc21.O=P(O)(O)O | – | – | – | – | – | – | – | – | – | – | – | – | – | – | – | – | – | 4% | -17%
Cl.Cn1cc(C[C@@H](NC(=O)[C@@H](N)Cc2ccccc2)C(=O)O)c2ccccc21 | 79% | 75% | 92% | 96% | 11.9 µM | 87% | 80% | 92% | 92% | -31% | -16% | 91% | 0% | 66% | 19% | 89% | 425 µM·h | – | –
Cl.Cn1cc(C[C@@H](N)C(=O)OCCC2CCNCC2)c2ccccc21 | 90% | 4% | 46% | 74% | 2.4 µM | 27% | 90% | 22% | 46% | -86% | -78% | 62% | 8% | 0% | 0% | 91% | 110 µM·h | – | –
CCOC(=O)[C@@H](Cc1cn(C)c2ccccc12)NC(=O)[C@@H](N)CC(C)C.O=S(=O)(O)c1ccccc1 | – | – | – | – | – | – | – | – | – | – | – | – | – | – | – | – | – | 29% | 45%
Cn1cc(C[C@@H](NC(=O)CN)C(=O)O)c2ccccc21.O=P(O)(O)O (H-Gly-[dTrp(1-Me)]-OH) | – | – | – | – | – | – | – | – | – | – | – | – | – | – | – | – | – | -3% | 3%
CCOC(=O)[C@@H](Cc1cn(C)c2ccccc12)NC(=O)[C@@H](N)CCC(N)=O.O=P(O)(O)O | – | – | – | – | – | – | – | – | – | – | – | – | – | – | – | – | – | -32% | -28%
